Test [1] deals with GvHD effector cells (CD8+Vβ8.3+). Put plainly: Mouse GvHD model: infiltration of GvHD effector cells in spleen and lungs by flow-cytometry. The class given is in vivo. Particulars: GvHD mice, IDO inhibitor 2 mg/ml in drinking water from 6 days prior to MSC injection. From the text: Acute GvHD was induced as previously described (T. Toubai et al. Blood, 119, 3844-3853 (2012)). Briefly, after lethal irradiation (11 Gy), recipient C57BL/6 male mice were transplanted with 1×10^6 purified CD8+ cells transgenic for a T-cell receptor specific for the male HY-antigen Uty (Matahari, Mh) from female Mh mice as GvHD effectors (FIG. 9A), 5×10^6 unfractionated bone marrow (BM) and 2×10^6 purified polyclonal CD4+ cells from female syngeneic donors (C57BL/6 wild-type donors). The control group received BM and purified CD4+ cells only. CD4+ and CD8+ T cells were obtained by positive selection using magnetic beads (Miltenyi Biotec Ltd, Bisley, UK). Live MSC (1×10^6) were injected i.v. at day +3, whilst apoMSC (1×10^6) were administered i.v. or i.p. at day +1, +3 and +6 from the transplant. Unless otherwise specified, animals were euthanized for analysis at day +7. The infiltration of GvHD effector cells was assessed by flow-cytometry and the percentage was expressed as proportion of cells in the lymphocyte gate, based on the physical characteristics of the cells.
In this model, the expansion of the T cells effecting GvHD (CD8+Vβ8.3+) can be precisely enumerated.

Another test relates to caspase 3. Put plainly: Caspase 3 activation in MSC cultured with activated PBMC (FRET-MSC). Format: cell-based, human. On the procedure: Luc-MSC were transfected with the pGL3-Control vector containing the SV40 promoter for the expression of Luc+ (Promega, Southampton, UK) or with pECFPDEVDR-Venus (Addgene, Teddington, UK) using electroporation (Gene Pulser Xcell, BioRad, Kidlington, UK). Cells were suspended in a total volume of 250 μl of buffer and electroporated in 0.4 cm gap cuvettes using 10 μg of DNA at 250 volts and […]. When pECFP-DEVDR-Venus was used, the donor fluorophore pECFP and the acceptor Venus-YFP were linked through the flexible linker DEVDR which is recognized and cleaved by the active form of caspase 3. In this system caspase 3 activity can be monitored through the analysis of the Förster Resonance Energy Transfer (FRET) between pECFP and Venus-YFP. […]
The following antibodies specific for murine molecules were used: anti-CD45 (FITC, Clone 30-F11) (eBiosciences Ltd, Hatfield, UK), anti-Vβ8.3 (FITC, Clone 1B3.3), antiCD8 (APC, Clone 53-6.7), antiCD4 (PE, Clone H129.19), anti-CD19 (APC-H7, Clone 1D3), anti-NK1.1 (PerCP-Cy5.5, Clone PK136) (BD Biosciences, Oxford, UK), anti-CD11b (PerCP-Cy5.5, clone M1/70), anti-CD11c (APC-Cy7, clone n418), anti-Ido1 (Alexa Fluo647, clone 2e2) (BioLegend, London, UK). […] All samples were acquired using BD FACS Canto II using the software FACS Diva and analyzed with Flow-jo software. […]

A further test concerns PGE2. Nature of the test: PGE2 ELISA in supernatant of MSC co-cultured with IBD patients' PBMC. Format: cell-based, human. Particulars: MSC (5×10^4) and patients PBMC (1×10^6), 24 hours, inhibitor 50 μM. On the procedure:
In particular MSC (5×10^4) and patients PBMC (1×10^6) were co-cultured for 24 hours, either with or without addition of a pan-caspase inhibibtor, Z-VAD-FMK (50 μM).
Supernatant was collected and PGE2 levels were measured by ELISA.
(ELISA stands for enzyme-linked immunosorbent assay.)

Where a SMILES comes first, the peptide text is derived from it. The star is where a group is joined. Cbz = O=C(OCc1ccccc1)*; CH2F = FC*

For `Cn1cc(C[C@@H](N)C(=O)O)c2ccccc21` [1-DMT, 1-methyl-D-tryptophan], in test [1], the “beneficial effect of MSC on Mh T cell infiltration” value is on record as “much reduced”. For `COC(=O)C[C@H](NC(=O)[C@H](C)NC(=O)[C@@H](NC(=O)OCc1ccccc1)C(C)C)C(=O)CF` [Z-VAD-FMK] (Cbz-Val-Ala-Asp(OMe)-CH2F), the “caspase activation in MSC induced by activated PBMC in presence of inhibitor” value in the test with caspase 3 is reported as “completely abrogated”. For the same compound, the “PGE2 levels in supernatant” value in the test on PGE2 is reported as “largely reduce”.

The values are drawn from patent US20230293591A1, “Therapeutic Substances, their Preparation and Diagnostic Procedure” (KING'S COLLEGE LONDON, priority 2017, published 2023).
